According to paper PMC9794833, “Ligand recognition and activation of neuromedin U receptor 2” (Nature Communications, 2022):
Values joined by “and” are separate entries in the source; they are usually repeats but may differ in a detail not shown here. Identical values can stand only once. Like-named read-outs stand apart in the source and are kept apart here. Where no end group is shown, it is not given here.

Legend:
Assay type in all cases: cell-based
NMU2 E127A [1] = target: T1, NMU2 E127A (Homo sapiens, UniProt Q9GZQ4, E127A); assay: IP accumulation assay, NMU2 mutant E127A; settings: IP accumulation
T1 construct: HA signal peptide (N); expressed in transfected cells; host or cells: HEK 293F
Experimental: NMU2 constructs of WT and mutants were constructed into PTT5 vector (Invitrogen), as mentioned above. HEK 293F cells were transiently transfected with WT or mutants with total of 2000 ng plasmid DNA using transfection reagent (PEI MAX 2000, Polysciences) and cultivated at 37 °C with 5% CO2. Cells were collected after 48-h transfection. IP accumulation was tested by IP-One Gq assay kit (Cisbio Bioassays, 62IPAPEJ) following the instruction manual. In general, cells were resuspended with 1× HBSS buffer containing 20 mM LiCl (stimulation buffer) and seeded into the white 384-well microplates (Proxi Plate^TM-384 Plus, PerkinElmer) with a density of 20,000 per well. Cells were preincubated with 10^−5 M R-PSOP (provided by Boehringer Ingelheim company, Germany) and gradient concentration from 10^−4 to 10^−11 M of NMU-25 or gradient concentration 10^−4 to 10^−11 M of NMU-25 alone in stimulation buffer at 37 °C for 90 min. The cryptate-labeled anti-IP1 monoclonal antibody and d2-labeled IP1 were diluted with lysis & detection buffer (1:20) and added to each well by 3 μl, respectively. The plates were incubated at room temperature for 60 minutes and then read in a Synerg^TM H1 microplate reader (BioTek) with excitation at 330 nm and emission at 620 and 665 nm. The IP1 production was calculated by a standard dose–response curve and analyzed by GraphPad Prism 8.0.

NMU2 E127A [2] = target: T1, NMU2 E127A; assay: TRUPATH assay, NMU2 mutant E127A
Experimental: The plasmids of Gαi1, Gβ3, and Gγ9 used for the TRUPATH assay were purchased from Addgene (TRUPATH Kit, #1000000163). NMU2 constructs of WT and mutants were constructed into a PTT5 vector (Invitrogen) with an N-terminal HA signal peptide followed by a Flag tag. HEK 293F cells were transiently transfected with WT or mutants of NMU2, Gαi1, Gβ3, and Gγ9 at an […] ratio of 4:1:1:1 with a total of 3500 ng plasmid DNA using a transfection reagent (PEI MAX 2000, Polysciences) and cultivated at 37 °C with 5 % CO2. Cells were collected after 48-h transfection. The expression level of the receptor was measured by incubating 10 μl cells with 15 μl TBS buffer supplemented with 4% bovine serum albumin, 20% (v/v) viability staining solution7-AAD (Invitrogen, Cat#00-6993-50), and ANTI-FLAG M2-FITC antibody (Sigma, F4049; 1:100 diluted by TBS) at 4 °C for 20 min. After incubation, 175 μl TBS buffer was added, and the fluorescence signal on the cell surface was detected by an FCM (flow cytometry) reader (Millipore). […] After a 5 min equilibration time in the darkness, plates were then read in a Synerg^TM H1 microplate reader (BioTek) with excitation at 395 nm and emission at 410 and 515 nm by serially three times. Then, 30 μl of 3.3× agonists were added into the wells with a gradient final concentration from 10^−4–10^−13 M. Plates were read immediately again by serially five times. […]

NMU2 = target: T2, NMU2 (Homo sapiens, UniProt Q9GZQ4); assay: TRUPATH Gαi1βγ biosensor assay, WT NMU2; settings: for NmU-25–induced G protein activation of NMU2: single replicates, in % (unit assumed)
T2 construct: HA signal peptide (N); expressed in transfected cells; host or cells: HEK 293F
Experimental: (§1) The plasmids of Gαi1, Gβ3, and Gγ9 used for the TRUPATH assay were purchased from Addgene (TRUPATH Kit, #1000000163). NMU2 constructs of WT and mutants were constructed into a PTT5 vector (Invitrogen) with an N-terminal HA signal peptide followed by a Flag tag. HEK 293F cells were transiently transfected with WT or mutants of NMU2, Gαi1, Gβ3, and Gγ9 at an […] ratio of 4:1:1:1 with a total of 3500 ng plasmid DNA using a transfection reagent (PEI MAX 2000, Polysciences) and cultivated at 37 °C with 5 % CO2. Cells were collected after 48-h transfection. The expression level of the receptor was measured by incubating 10 μl cells with 15 μl TBS buffer supplemented with 4% bovine serum albumin, 20% (v/v) viability staining solution7-AAD (Invitrogen, Cat#00-6993-50), and ANTI-FLAG M2-FITC antibody (Sigma, F4049; 1:100 diluted by TBS) at 4 °C for 20 min. After incubation, 175 μl TBS buffer was added, and the fluorescence signal on the cell surface was detected by an FCM (flow cytometry) reader (Millipore). The cells were diluted with 1× HBSS (Hank’s balanced salt solution) balanced buffer supplemented with 25 mM HEPES, pH 7.4, and seeded onto the 96-well opaque cell culture plates (Beyotime) at a density of 18,000 cells per well by 60 μl. Freshly prepared 50 μM coelenterazine 400a (Nanolight Technologies) was added into the well by 10 μl. After a 5 min equilibration time in the darkness, plates were then read in a Synerg^TM H1 microplate reader (BioTek) with excitation at 395 nm and emission at 410 and 515 nm by serially three times. Then, 30 μl of 3.3× agonists were added into the wells with a gradient final concentration from 10^−4–10^−13 M. Plates were read immediately again by serially five times. Data were processed and analyzed following the method in the literature by using GraphPad Prism 8.0.

NMU2 F316A = target: T3, NMU2 F316A (Homo sapiens, UniProt Q9GZQ4, F316A); assay: TRUPATH assay, NMU2 mutant F316A
T3 construct: HA signal peptide (N); expressed in transfected cells; host or cells: HEK 293F
Experimental: as §1

T2 sequence (Q9GZQ4 whole entry): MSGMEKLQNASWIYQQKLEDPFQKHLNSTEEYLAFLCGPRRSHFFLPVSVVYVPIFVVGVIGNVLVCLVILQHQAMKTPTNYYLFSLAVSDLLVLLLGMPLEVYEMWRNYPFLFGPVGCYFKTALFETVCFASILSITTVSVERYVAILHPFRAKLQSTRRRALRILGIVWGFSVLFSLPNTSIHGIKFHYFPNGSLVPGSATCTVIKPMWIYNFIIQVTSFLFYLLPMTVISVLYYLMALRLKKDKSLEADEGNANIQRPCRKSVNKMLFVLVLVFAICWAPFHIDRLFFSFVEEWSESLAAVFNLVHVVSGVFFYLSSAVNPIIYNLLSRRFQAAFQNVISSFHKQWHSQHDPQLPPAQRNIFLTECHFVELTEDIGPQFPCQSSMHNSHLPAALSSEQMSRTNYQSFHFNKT
T3 sequence (Q9GZQ4 whole entry F316A): as the sequence (Q9GZQ4 whole entry) above, with F316A counted along it
T1 sequence (Q9GZQ4 whole entry E127A): as the sequence (Q9GZQ4 whole entry) above, with E127A counted along it

## FRVDEEFQSPFASQSRGYFLFRPRN-NH2 [NmU-25]
NMU2 E127A [1]; read-out: EC50, NmU-25 alone
  EC50: 2.14 µM
NMU2 E127A [1]; read-out: pEC50±SEM, NmU-25 alone (converted)
  EC50: 2.14 µM
NMU2 E127A [2]; Log [agonist] M -4
  G protein activation (TRUPATH), dose-response point: 45.81 and 24.8732
NMU2 E127A [2]; TRUPATH
  potency (in words): complete loss of potency
NMU2; TRUPATH, peer review file
  potency on Gi1, Gq and G11 signaling pathways (in words): highest potency by coupling Gi1
NMU2; WT
  EC50 ratio EC50(mutant)/EC50(WT): 1
  Span (window between Emax and minimal agonist response): 100±5 % of WT
NMU2; WT, Log [NmU-25] M -4
  NmU-25–induced G protein activation of NMU2: 96.1513 and 120.034 and 131.645 and 132.135 and 112.945 and 100.303 and 111.674 and 103.511
NMU2; WT, Log [NmU-25] M -5
  NmU-25–induced G protein activation of NMU2: 94.5176 and 100.381 and 95.0326
NMU2; WT, Log [NmU-25] M -8
  NmU-25–induced G protein activation of NMU2: 14.7563 and 14.6245 and 25.1777 and 27.4903 and 32.4994 and 60.5946 and 16.3263 and -20.6053 and 85.0469 and -9.5497 and 77.5389 and 54.5579 and 12.0114
NMU2; WT, Log [NmU-25] M -9
  NmU-25–induced G protein activation of NMU2: 14.8034 and 2.989 and 12.9021 and 10.3696 and 7.38 and -3.464 and 27.6247 and 0.6791 and -7.166 and 14.4877 and 22.3774 and 22.0623 and -4.444
NMU2; WT, Log [NmU-25] M -10
  NmU-25–induced G protein activation of NMU2: -1.975 and -9.668 and -7.55 and 11.1071 and -8.093 and -25.3752 and 0.6481 and -23.592 and -13.8096 and 16.7093 and 3.342 and 8.321 and 30.8279
NMU2; WT, Log [NmU-25] M -11
  NmU-25–induced G protein activation of NMU2: -12.488 and 4.703 and -8.667 and -24.4881 and 6.542 and 34.4845 and -19.0587 and 46.905 and 31.0606 and -18.1089 and -17.8891 and -27.6836
NMU2; WT, agonist-induced G protein activation, HEK 293F, read-out: EC50
  EC50: 0.034 µM
NMU2; WT, earlier manuscript version quoted in peer review file, read-out: EC50
  EC50: 0.037 µM
NMU2; WT, read-out: pEC50 mean±SEM (converted)
  EC50: 0.0347 µM
NMU2 F316A
  EC50 ratio EC50(mutant)/EC50(WT): 39
NMU2 F316A; Log [agonist] M -4
  G protein activation (TRUPATH), dose-response point: 89.6236 and 94.3509 and 81.0469 and 109.176
NMU2 F316A; Log [agonist] M -5
  G protein activation (TRUPATH), dose-response point: 58.7715 and 110.343 and 86.8329 and 108.262
NMU2 F316A; individual experiments
  ΔpEC50 (from WT): -1.816 and -2.03 and -0.9173 and -1.079
NMU2 F316A; read-out: EC50
  EC50: 1.34 µM
NMU2 F316A; read-out: pEC50 mean±SEM (converted)
  EC50: 1.35 µM
